Test results taken from PubChem BioAssay (NCI).
“And” between values parts separate entries of the source, which are not always exact repeats. Equal values may be shown once.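 Compound exposure: 48 hours, 5 concentrations, 96-well plates. Here, GI50 denotes the concentration required for 50% inhibition of growth. Definition used: TGI = concentration required for complete inhibition of growth.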

Legend:
Test in all cases: growth of human tumour cells (NCI), 48 h
CAKI-1 renal = tested on: CAKI-1 renal
EKVX NSCLC = tested on: EKVX NSCLC
HCT-15 colon = tested on: HCT-15 colon
K-562 leukemia = tested on: K-562 leukemia
MCF7 breast = tested on: MCF7 breast
OVCAR-3 ovarian = tested on: OVCAR-3 ovarian
SF-539 CNS = tested on: SF-539 CNS
SNB-75 CNS = tested on: SNB-75 CNS
U251 CNS = tested on: U251 CNS
UACC-62 melanoma = tested on: UACC-62 melanoma

With `C=C(CN1CCN(c2cccc(C(F)(F)F)n2)CC1)c1ccc(C(=O)Nc2ccccc2N)cc1` as the molecule, how does the GI50 (CAKI-1 renal) read?
The GI50 was 0.512 µM and 0.52 µM.

And the TGI (CAKI-1 renal)?
Its TGI is > 100 µM and 25.7 µM.

What about the GI50 (EKVX NSCLC) of the same molecule?
The GI50 was 24.3 µM and 2.73 µM.

What about the TGI (EKVX NSCLC) of the same molecule?
The TGI was > 100 µM.

What about the GI50 (HCT-15 colon) of the same molecule?
Its GI50 is 0.918 µM and 0.404 µM.

What about the TGI (HCT-15 colon) of the same molecule?
Its TGI is > 100 µM.

And the GI50 (K-562 leukemia)?
Its GI50 is 0.623 µM.

And the TGI (K-562 leukemia)?
Its TGI is > 100 µM.

What about the GI50 (MCF7 breast) of the same molecule?
Its GI50 is 0.349 µM and 0.293 µM.

What about the TGI (MCF7 breast) of the same molecule?
The TGI was > 100 µM.

What about the GI50 (OVCAR-3 ovarian) of the same molecule?
The GI50 was 0.258 µM and 0.261 µM.

And the TGI (OVCAR-3 ovarian)?
Its TGI is 1.12 µM and 0.982 µM.

What about the GI50 (SF-539 CNS) of the same molecule?
Its GI50 is 0.978 µM and 0.331 µM.

What about the TGI (SF-539 CNS) of the same molecule?
The TGI was 16.8 µM and 2.05 µM.

And the GI50 (SNB-75 CNS)?
Its GI50 is 0.673 µM and 0.21 µM.

What about the TGI (SNB-75 CNS) of the same molecule?
The TGI was 12.2 µM and 2.19 µM.

And the GI50 (U251 CNS)?
Its GI50 is 1.16 µM and 0.429 µM.

And the TGI (U251 CNS)?
Its TGI is 34.4 µM and 12.8 µM.

What about the GI50 (UACC-62 melanoma) of the same molecule?
The GI50 was 0.97 µM and 0.51 µM.

And the TGI (UACC-62 melanoma)?
Its TGI is > 100 µM.

Which TGI (CAKI-1 renal) does the source give for `O=c1ccs[nH]1` here?
The TGI was 22.2 µM.

And the TGI (EKVX NSCLC)?
The TGI was 27.2 µM.

What about the TGI (HCT-15 colon) of the same molecule?
Its TGI is 33.8 µM.

What about the TGI (K-562 leukemia) of the same molecule?
Its TGI is 64.6 µM.

And the TGI (MCF7 breast)?
The TGI was 38.7 µM.

What about the TGI (OVCAR-3 ovarian) of the same molecule?
Its TGI is 21.7 µM.

And the TGI (SF-539 CNS)?
The TGI was 18.3 µM.

What about the TGI (SNB-75 CNS) of the same molecule?
Its TGI is 36.5 µM.

What about the TGI (U251 CNS) of the same molecule?
Its TGI is 21.4 µM.

What about the TGI (UACC-62 melanoma) of the same molecule?
Its TGI is 39.8 µM.

`c1cc(N2CCCN(c3ccc(C4=NCCCN4)cc3)CC2)ccc1C1=NCCCN1` was tested. Which GI50 (CAKI-1 renal) did it give?
Its GI50 is > 100 µM.

What about the TGI (CAKI-1 renal) of the same molecule?
Its TGI is > 100 µM.

What about the GI50 (EKVX NSCLC) of the same molecule?
Its GI50 is 40.6 µM.

What about the TGI (EKVX NSCLC) of the same molecule?
Its TGI is > 100 µM.

And the GI50 (HCT-15 colon)?
Its GI50 is > 100 µM.

And the TGI (HCT-15 colon)?
Its TGI is > 100 µM.

And the GI50 (K-562 leukemia)?
The GI50 was 88 µM.

And the TGI (K-562 leukemia)?
Its TGI is > 100 µM.

And the GI50 (MCF7 breast)?
Its GI50 is > 100 µM.

And the TGI (MCF7 breast)?
Its TGI is > 100 µM.

What about the GI50 (OVCAR-3 ovarian) of the same molecule?
The GI50 was > 100 µM.

And the TGI (OVCAR-3 ovarian)?
Its TGI is > 100 µM.

And the GI50 (SF-539 CNS)?
Its GI50 is 59.4 µM.

What about the TGI (SF-539 CNS) of the same molecule?
The TGI was > 100 µM.

And the GI50 (SNB-75 CNS)?
The GI50 was > 100 µM.

And the TGI (SNB-75 CNS)?
Its TGI is > 100 µM.

And the GI50 (U251 CNS)?
The GI50 was 65.9 µM.

And the TGI (U251 CNS)?
The TGI was > 100 µM.

And the GI50 (UACC-62 melanoma)?
Its GI50 is 68.1 µM.

What about the TGI (UACC-62 melanoma) of the same molecule?
Its TGI is > 100 µM.

For `Cc1cc(O)cc2c1[C@]1(C)CCC3C(C)(C)CCC[C@]3(C)[C@H]1C2` (stereo partly specified), which GI50 (CAKI-1 renal) is on record?
The GI50 was 18.1 µM.

And the TGI (CAKI-1 renal)?
The TGI was 31.9 µM.

And the GI50 (EKVX NSCLC)?
Its GI50 is 19.9 µM.

What about the TGI (EKVX NSCLC) of the same molecule?
Its TGI is 36.6 µM.

And the GI50 (HCT-15 colon)?
The GI50 was 19.9 µM.

And the TGI (HCT-15 colon)?
Its TGI is 38.1 µM.

What about the GI50 (K-562 leukemia) of the same molecule?
Its GI50 is 67.4 µM.

What about the TGI (K-562 leukemia) of the same molecule?
The TGI was > 100 µM.

What about the GI50 (MCF7 breast) of the same molecule?
Its GI50 is 18.6 µM.

And the TGI (MCF7 breast)?
Its TGI is 33.3 µM.

What about the GI50 (OVCAR-3 ovarian) of the same molecule?
The GI50 was 19.2 µM.

What about the TGI (OVCAR-3 ovarian) of the same molecule?
Its TGI is 33.5 µM.

And the GI50 (SF-539 CNS)?
Its GI50 is 20.6 µM.

And the TGI (SF-539 CNS)?
Its TGI is 37.9 µM.

What about the GI50 (SNB-75 CNS) of the same molecule?
Its GI50 is 17.9 µM.

What about the TGI (SNB-75 CNS) of the same molecule?
The TGI was 34.2 µM.

What about the GI50 (U251 CNS) of the same molecule?
The GI50 was 19.2 µM.

And the TGI (U251 CNS)?
The TGI was 33.5 µM.

What about the GI50 (UACC-62 melanoma) of the same molecule?
Its GI50 is 18.6 µM.

And the TGI (UACC-62 melanoma)?
Its TGI is 33.2 µM.

For `C=C(NC(=O)C(=C)NC(=O)c1csc(C2=NC3c4csc(n4)C4NC(=O)c5csc(n5)C(C(C)(O)C(C)O)NC(=O)C5CSC(=N5)C(=CC)NC(=O)C(C(C)O)NC(=O)c5csc(n5)C3(CC2)NC(=O)C(C)NC(=O)C(=C)NC(=O)C(C)NC(=O)C(C(C)CC)NC2C=Cc3c(C(C)O)cc(nc3C2O)C(=O)OC4C)n1)C(N)=O` (stereo unspecified), which GI50 (CAKI-1 renal) is on record?
Its GI50 is 14.6 µM.

What about the TGI (CAKI-1 renal) of the same molecule?
The TGI was > 100 µM.

And the GI50 (EKVX NSCLC)?
The GI50 was 32.5 µM.

And the TGI (EKVX NSCLC)?
Its TGI is > 100 µM.

What about the GI50 (HCT-15 colon) of the same molecule?
The GI50 was 65.6 µM.

And the TGI (HCT-15 colon)?
Its TGI is > 100 µM.

And the GI50 (MCF7 breast)?
The GI50 was 5.7 µM.

What about the TGI (MCF7 breast) of the same molecule?
Its TGI is > 100 µM.

And the GI50 (OVCAR-3 ovarian)?
Its GI50 is 6.59 µM.

What about the TGI (OVCAR-3 ovarian) of the same molecule?
Its TGI is > 100 µM.

What about the GI50 (SF-539 CNS) of the same molecule?
The GI50 was 4.62 µM.

What about the TGI (SF-539 CNS) of the same molecule?
The TGI was 42.9 µM.

What about the GI50 (SNB-75 CNS) of the same molecule?
The GI50 was 8.12 µM.

And the TGI (SNB-75 CNS)?
Its TGI is 83.7 µM.

What about the GI50 (U251 CNS) of the same molecule?
Its GI50 is 9.37 µM.

And the TGI (U251 CNS)?
Its TGI is 31.8 µM.

What about the GI50 (UACC-62 melanoma) of the same molecule?
Its GI50 is 4.34 µM.

And the TGI (UACC-62 melanoma)?
Its TGI is 32.6 µM.

What does the source list for `CC(C)C[C@H](NC(=O)Cn1ccc(NCc2ccccc2)cc1=O)B(O)O`?
GI50 (CAKI-1 renal): 0.499 µM; TGI (CAKI-1 renal): 12.8 µM; GI50 (HCT-15 colon): 2.62 µM; TGI (HCT-15 colon): > 41.6 µM; GI50 (K-562 leukemia): 3.48 µM; TGI (K-562 leukemia): > 100 µM; GI50 (MCF7 breast): 0.413 µM; TGI (MCF7 breast): > 100 µM; GI50 (OVCAR-3 ovarian): 0.537 µM; TGI (OVCAR-3 ovarian): 3.12 µM; GI50 (SF-539 CNS): 0.296 µM; TGI (SF-539 CNS): 1.13 µM; GI50 (SNB-75 CNS): 2.33 µM; TGI (SNB-75 CNS): 9.72 µM; GI50 (U251 CNS): 6.3 µM; TGI (U251 CNS): > 100 µM; GI50 (UACC-62 melanoma): 1.6 µM; TGI (UACC-62 melanoma): 11.1 µM

With `CNC(=S)NC(=O)c1c(Cl)n(C(=O)OC(C)(C)C)c2ccccc12` as the molecule, how does the GI50 (CAKI-1 renal) read?
The GI50 was 21.2 µM.

And the TGI (CAKI-1 renal)?
Its TGI is 69.9 µM.

What about the GI50 (EKVX NSCLC) of the same molecule?
The GI50 was 39.7 µM.

What about the TGI (EKVX NSCLC) of the same molecule?
Its TGI is > 100 µM.

And the GI50 (HCT-15 colon)?
The GI50 was 86 µM.

What about the TGI (HCT-15 colon) of the same molecule?
The TGI was > 100 µM.

And the GI50 (K-562 leukemia)?
The GI50 was > 100 µM.

And the TGI (K-562 leukemia)?
Its TGI is > 100 µM.

What about the GI50 (MCF7 breast) of the same molecule?
Its GI50 is 28.3 µM.

And the TGI (MCF7 breast)?
The TGI was > 100 µM.

What about the GI50 (OVCAR-3 ovarian) of the same molecule?
Its GI50 is 38.1 µM.

What about the TGI (OVCAR-3 ovarian) of the same molecule?
Its TGI is > 100 µM.

What about the GI50 (SF-539 CNS) of the same molecule?
The GI50 was 35 µM.

What about the TGI (SF-539 CNS) of the same molecule?
Its TGI is > 100 µM.

What about the GI50 (SNB-75 CNS) of the same molecule?
The GI50 was 96 µM.

And the TGI (SNB-75 CNS)?
Its TGI is > 100 µM.

What about the GI50 (U251 CNS) of the same molecule?
The GI50 was 53.6 µM.

What about the TGI (U251 CNS) of the same molecule?
Its TGI is > 100 µM.

And the GI50 (UACC-62 melanoma)?
The GI50 was 56.2 µM.

And the TGI (UACC-62 melanoma)?
The TGI was > 100 µM.
